Values belong to the compound of their own block, whether it stands above or below them.
Key:
Test in all cases: radiometric filter-binding kinase assay
[1] = target: PRKCG (human) (UniProt P05129)
[2] = target: PLK1 (human) (UniProt P53350)
[3] = target: TSSK1B (human) (UniProt Q9BXA7)
[4] = target: ZAP70 (human) (UniProt P43403)
[5] = target: STK16 (human) (UniProt O75716)
[6] = target: CDK9 CCNT1 (human) (UniProt P50750+O60563)
[7] = target: TESK1 (human) (UniProt Q15569)
[8] = target: STK24 (human) (UniProt Q9Y6E0)
[9] = target: TEK (human) (UniProt Q02763)
[10] = target: DDR2 (human) (UniProt Q16832)
[11] = target: EIF2AK3 (human) (UniProt Q9NZJ5)
[12] = target: CSNK1G2 (human) (UniProt P78368)
[13] = target: WNK1 (human) (UniProt Q9H4A3)
[14] = target: IRAK1 (human) (UniProt P51617)
[15] = target: TTBK1 (human) (UniProt Q5TCY1)
[16] = target: PTK6 (human) (UniProt Q13882)
[17] = target: STK33 (human) (UniProt Q9BYT3)
[18] = target: TLK1 (human) (UniProt Q9UKI8)
[19] = system: OXSR1 (human), O95747 [T185E]
[20] = target: ABL1 (human) (UniProt P00519)

TEK (human), sequence (Q02763 whole entry, looked up): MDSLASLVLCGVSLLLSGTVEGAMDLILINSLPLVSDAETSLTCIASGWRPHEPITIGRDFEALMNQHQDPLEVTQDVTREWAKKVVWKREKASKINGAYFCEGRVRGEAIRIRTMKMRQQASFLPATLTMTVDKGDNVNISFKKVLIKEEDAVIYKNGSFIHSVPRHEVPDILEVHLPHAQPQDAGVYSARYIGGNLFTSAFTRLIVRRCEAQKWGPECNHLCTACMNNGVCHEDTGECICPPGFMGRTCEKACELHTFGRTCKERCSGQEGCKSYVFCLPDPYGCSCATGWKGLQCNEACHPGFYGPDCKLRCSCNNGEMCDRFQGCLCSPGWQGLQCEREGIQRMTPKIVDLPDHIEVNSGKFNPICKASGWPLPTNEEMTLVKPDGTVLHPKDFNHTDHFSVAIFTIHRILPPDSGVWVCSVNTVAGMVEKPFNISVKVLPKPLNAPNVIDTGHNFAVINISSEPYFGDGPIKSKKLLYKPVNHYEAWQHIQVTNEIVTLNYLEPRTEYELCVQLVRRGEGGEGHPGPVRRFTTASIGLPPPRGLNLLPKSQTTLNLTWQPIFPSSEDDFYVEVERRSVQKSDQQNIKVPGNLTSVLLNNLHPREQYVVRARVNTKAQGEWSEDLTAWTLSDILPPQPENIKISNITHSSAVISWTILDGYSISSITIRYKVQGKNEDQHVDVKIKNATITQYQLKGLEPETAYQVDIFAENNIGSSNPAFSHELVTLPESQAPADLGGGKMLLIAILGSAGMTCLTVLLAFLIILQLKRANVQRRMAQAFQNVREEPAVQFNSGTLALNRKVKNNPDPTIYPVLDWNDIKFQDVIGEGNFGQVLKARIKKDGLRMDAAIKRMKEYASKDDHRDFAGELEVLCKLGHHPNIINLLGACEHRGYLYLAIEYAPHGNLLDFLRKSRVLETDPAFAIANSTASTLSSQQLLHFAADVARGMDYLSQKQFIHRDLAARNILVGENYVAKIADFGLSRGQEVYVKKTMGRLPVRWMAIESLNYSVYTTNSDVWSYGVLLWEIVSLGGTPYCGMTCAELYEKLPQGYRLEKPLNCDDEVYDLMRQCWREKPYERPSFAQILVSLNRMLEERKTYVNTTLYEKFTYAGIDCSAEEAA
PLK1 (human), sequence (P53350 whole entry, looked up): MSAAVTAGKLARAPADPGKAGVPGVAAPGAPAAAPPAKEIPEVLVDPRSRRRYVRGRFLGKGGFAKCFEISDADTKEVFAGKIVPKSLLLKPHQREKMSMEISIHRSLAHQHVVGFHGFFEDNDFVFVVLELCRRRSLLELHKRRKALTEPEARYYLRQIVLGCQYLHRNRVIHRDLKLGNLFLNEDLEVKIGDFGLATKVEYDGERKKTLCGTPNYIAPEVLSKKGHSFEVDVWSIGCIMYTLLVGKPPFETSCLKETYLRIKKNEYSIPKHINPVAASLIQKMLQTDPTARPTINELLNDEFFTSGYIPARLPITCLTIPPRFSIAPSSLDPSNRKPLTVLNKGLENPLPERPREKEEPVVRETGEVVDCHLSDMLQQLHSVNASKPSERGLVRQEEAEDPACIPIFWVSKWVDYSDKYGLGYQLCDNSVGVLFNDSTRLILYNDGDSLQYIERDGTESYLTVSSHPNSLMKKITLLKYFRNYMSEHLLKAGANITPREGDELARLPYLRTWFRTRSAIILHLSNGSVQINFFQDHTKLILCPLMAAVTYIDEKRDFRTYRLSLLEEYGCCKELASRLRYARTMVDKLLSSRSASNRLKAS
DDR2 (human), sequence (Q16832 whole entry, looked up): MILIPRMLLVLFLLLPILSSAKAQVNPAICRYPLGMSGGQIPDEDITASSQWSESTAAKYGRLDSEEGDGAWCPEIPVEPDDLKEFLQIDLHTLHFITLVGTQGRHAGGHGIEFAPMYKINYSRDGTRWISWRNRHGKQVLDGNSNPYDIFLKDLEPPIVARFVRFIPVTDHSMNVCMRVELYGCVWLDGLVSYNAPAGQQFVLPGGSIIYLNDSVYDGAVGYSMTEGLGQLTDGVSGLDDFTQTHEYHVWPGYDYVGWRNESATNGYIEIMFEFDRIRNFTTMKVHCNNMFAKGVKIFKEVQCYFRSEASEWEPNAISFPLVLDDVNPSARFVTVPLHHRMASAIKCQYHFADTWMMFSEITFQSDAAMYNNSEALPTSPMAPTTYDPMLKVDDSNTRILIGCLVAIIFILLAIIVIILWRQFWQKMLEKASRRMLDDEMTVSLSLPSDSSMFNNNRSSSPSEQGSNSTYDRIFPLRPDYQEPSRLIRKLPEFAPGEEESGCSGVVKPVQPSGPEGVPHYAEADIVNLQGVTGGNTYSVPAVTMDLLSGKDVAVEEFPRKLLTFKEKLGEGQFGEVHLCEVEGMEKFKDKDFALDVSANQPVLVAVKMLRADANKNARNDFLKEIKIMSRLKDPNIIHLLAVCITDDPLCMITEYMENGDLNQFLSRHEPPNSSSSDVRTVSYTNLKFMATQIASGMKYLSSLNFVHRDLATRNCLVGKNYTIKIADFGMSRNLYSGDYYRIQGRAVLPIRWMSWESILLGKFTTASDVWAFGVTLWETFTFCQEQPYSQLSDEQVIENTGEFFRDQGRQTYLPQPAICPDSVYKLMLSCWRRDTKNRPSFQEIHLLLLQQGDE
IRAK1 (human), sequence (P51617 whole entry, looked up): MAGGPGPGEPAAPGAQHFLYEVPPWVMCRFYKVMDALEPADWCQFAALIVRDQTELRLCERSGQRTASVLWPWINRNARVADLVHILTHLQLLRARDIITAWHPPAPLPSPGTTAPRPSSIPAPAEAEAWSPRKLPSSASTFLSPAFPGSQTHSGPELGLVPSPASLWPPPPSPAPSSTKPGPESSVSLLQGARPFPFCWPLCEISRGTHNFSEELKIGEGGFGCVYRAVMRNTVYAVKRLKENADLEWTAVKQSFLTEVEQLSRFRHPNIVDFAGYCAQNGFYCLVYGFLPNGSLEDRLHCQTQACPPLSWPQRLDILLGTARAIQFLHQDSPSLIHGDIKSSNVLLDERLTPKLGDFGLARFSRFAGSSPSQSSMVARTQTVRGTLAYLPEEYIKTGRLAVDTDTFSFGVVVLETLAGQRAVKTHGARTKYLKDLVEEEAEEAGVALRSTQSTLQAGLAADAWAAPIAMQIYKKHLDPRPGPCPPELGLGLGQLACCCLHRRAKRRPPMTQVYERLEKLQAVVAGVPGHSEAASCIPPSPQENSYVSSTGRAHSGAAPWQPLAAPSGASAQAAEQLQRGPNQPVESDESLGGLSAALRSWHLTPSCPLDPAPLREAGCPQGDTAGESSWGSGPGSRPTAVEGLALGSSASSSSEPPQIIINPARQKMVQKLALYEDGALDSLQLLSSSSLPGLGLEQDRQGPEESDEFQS
STK33 (human), sequence (Q9BYT3 whole entry, looked up): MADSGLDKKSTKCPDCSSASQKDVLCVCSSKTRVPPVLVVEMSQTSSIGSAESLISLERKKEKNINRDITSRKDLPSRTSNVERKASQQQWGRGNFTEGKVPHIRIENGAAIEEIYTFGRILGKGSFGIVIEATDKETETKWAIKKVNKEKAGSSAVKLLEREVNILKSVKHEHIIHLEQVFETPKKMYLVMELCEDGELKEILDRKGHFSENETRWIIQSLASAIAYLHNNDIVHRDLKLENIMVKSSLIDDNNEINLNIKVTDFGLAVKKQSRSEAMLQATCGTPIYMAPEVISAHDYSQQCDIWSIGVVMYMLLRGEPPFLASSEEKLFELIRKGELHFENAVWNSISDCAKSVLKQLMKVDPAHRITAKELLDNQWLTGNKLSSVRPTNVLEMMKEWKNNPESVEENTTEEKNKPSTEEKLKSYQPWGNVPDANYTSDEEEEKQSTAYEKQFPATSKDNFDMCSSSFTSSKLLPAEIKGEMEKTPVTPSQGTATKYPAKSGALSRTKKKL
TESK1 (human), sequence (Q15569 whole entry, looked up): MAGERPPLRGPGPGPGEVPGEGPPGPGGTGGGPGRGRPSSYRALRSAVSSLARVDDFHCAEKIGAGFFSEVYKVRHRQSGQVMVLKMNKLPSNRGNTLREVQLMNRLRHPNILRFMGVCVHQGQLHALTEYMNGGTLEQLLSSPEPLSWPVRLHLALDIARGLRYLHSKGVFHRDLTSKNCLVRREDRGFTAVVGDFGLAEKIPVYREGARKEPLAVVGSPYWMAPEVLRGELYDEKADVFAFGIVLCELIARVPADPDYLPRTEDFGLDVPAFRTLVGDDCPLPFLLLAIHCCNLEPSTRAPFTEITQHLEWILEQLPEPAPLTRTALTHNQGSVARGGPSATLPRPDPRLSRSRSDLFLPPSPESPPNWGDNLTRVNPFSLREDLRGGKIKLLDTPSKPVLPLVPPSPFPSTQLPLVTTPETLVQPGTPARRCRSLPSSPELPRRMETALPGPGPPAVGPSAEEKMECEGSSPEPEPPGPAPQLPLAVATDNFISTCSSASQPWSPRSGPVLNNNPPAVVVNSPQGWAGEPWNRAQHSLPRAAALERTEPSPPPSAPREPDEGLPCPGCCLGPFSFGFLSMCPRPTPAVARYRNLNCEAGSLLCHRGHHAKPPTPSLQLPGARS
ZAP70 (human), sequence (P43403 whole entry, looked up): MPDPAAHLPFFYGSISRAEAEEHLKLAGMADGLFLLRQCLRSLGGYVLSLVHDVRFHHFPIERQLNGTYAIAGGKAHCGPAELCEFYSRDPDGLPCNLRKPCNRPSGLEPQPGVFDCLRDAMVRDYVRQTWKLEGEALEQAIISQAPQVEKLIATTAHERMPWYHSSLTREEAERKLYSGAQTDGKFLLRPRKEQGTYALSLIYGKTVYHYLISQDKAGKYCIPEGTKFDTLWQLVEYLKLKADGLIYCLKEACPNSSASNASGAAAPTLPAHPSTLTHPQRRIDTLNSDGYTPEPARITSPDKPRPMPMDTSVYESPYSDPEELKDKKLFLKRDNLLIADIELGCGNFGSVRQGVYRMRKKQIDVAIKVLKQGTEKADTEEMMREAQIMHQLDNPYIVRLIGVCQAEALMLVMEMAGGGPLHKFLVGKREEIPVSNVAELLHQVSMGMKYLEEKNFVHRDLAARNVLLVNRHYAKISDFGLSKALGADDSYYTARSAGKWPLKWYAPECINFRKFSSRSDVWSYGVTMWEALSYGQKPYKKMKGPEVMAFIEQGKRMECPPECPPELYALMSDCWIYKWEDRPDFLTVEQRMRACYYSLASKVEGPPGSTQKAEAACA

residual activity ([1]; compound 0.01 µM): 101% | residual activity ([1]; compound 0.1 µM): 104% | residual activity ([1]; compound 1.0 µM): 96% | residual activity ([2]; compound 0.01 µM): 98% | residual activity ([2]; compound 0.1 µM): 102% | residual activity ([2]; compound 1.0 µM): 97% | residual activity ([3]; compound 0.01 µM): 108% | residual activity ([3]; compound 0.1 µM): 102% | residual activity ([3]; compound 1.0 µM): 62% | residual activity ([4]; compound 0.01 µM): 96% | residual activity ([4]; compound 0.1 µM): 98% | residual activity ([4]; compound 1.0 µM): 94% | residual activity ([5]; compound 0.01 µM): 106% | residual activity ([5]; compound 0.1 µM): 106% | residual activity ([5]; compound 1.0 µM): 106% | residual activity ([6]; compound 0.01 µM): 104% | residual activity ([6]; compound 0.1 µM): 87% | residual activity ([6]; compound 1.0 µM): 95% | residual activity ([7]; compound 0.01 µM): 82% | residual activity ([7]; compound 0.1 µM): 29% | residual activity ([7]; compound 1.0 µM): 16% | residual activity ([8]; compound 0.01 µM): 105% | residual activity ([8]; compound 1.0 µM): 40% | residual activity ([9]; compound 0.01 µM): 116% | residual activity ([9]; compound 0.1 µM): 82% | residual activity ([9]; compound 1.0 µM): 42% | residual activity ([10]; compound 0.01 µM): 17% | residual activity ([10]; compound 0.1 µM): 8% | residual activity ([10]; compound 1.0 µM): 6% | residual activity ([11]; compound 0.01 µM): 91% | residual activity ([11]; compound 0.1 µM): 97% | residual activity ([11]; compound 1.0 µM): 95% | residual activity ([12]; compound 0.01 µM): 96% | residual activity ([12]; compound 0.1 µM): 93% | residual activity ([13]; compound 0.01 µM): 100% | residual activity ([13]; compound 0.1 µM): 107% | residual activity ([13]; compound 1.0 µM): 102% | residual activity ([14]; compound 0.01 µM): 98% | residual activity ([14]; compound 0.1 µM): 95% | residual activity ([14]; compound 1.0 µM): 95% | residual activity ([15]; compound 0.01 µM): 100% | residual activity ([15]; compound 0.1 µM): 117% | residual activity ([15]; compound 1.0 µM): 112% | residual activity ([16]; compound 0.01 µM): 97% | residual activity ([16]; compound 0.1 µM): 24% | residual activity ([16]; compound 1.0 µM): 3% | residual activity ([17]; compound 0.01 µM): 113% | residual activity ([17]; compound 0.1 µM): 106% | residual activity ([17]; compound 1.0 µM): 107% | residual activity ([18]; compound 0.01 µM): 98% | residual activity ([18]; compound 0.1 µM): 93% | residual activity ([18]; compound 1.0 µM): 93% | residual activity ([19]; compound 0.01 µM): 101% | residual activity ([19]; compound 0.1 µM): 93% | residual activity ([19]; compound 1.0 µM): 57%
Compound: COc1ccc(N(C(=O)Nc2c(C)cccc2C)c2cc(Nc3ccc(N4CCN(C)CC4)cc3)ncn2)c(OC)c1

residual activity ([1]; compound 1.0 µM): 111% | residual activity ([1]; compound 10.0 µM): 99% | residual activity ([2]; compound 1.0 µM): 93% | residual activity ([2]; compound 10.0 µM): 87% | residual activity ([3]; compound 10.0 µM): 103% | residual activity ([4]; compound 1.0 µM): 75% | residual activity ([4]; compound 10.0 µM): 77% | residual activity ([5]; compound 1.0 µM): 87% | residual activity ([5]; compound 10.0 µM): 100% | residual activity ([7]; compound 1.0 µM): 116% | residual activity ([7]; compound 10.0 µM): 108% | residual activity ([9]; compound 1.0 µM): 93% | residual activity ([9]; compound 10.0 µM): 95% | residual activity ([11]; compound 1.0 µM): 101% | residual activity ([11]; compound 10.0 µM): 97% | residual activity ([20]; compound 1.0 µM): 93% | residual activity ([20]; compound 10.0 µM): 103% | residual activity ([14]; compound 1.0 µM): 79% | residual activity ([14]; compound 10.0 µM): 56% | residual activity ([15]; compound 1.0 µM): 110% | residual activity ([15]; compound 10.0 µM): 100% | residual activity ([16]; compound 1.0 µM): 96% | residual activity ([16]; compound 10.0 µM): 97% | residual activity ([17]; compound 10.0 µM): 98% | residual activity ([18]; compound 1.0 µM): 84% | residual activity ([18]; compound 10.0 µM): 101% | residual activity ([19]; compound 1.0 µM): 102% | residual activity ([19]; compound 10.0 µM): 103%
Compound: CC(C)(C#N)c1ccc(N2C(=O)OCc3cnc4ccc(-c5cnc6ccccc6c5)cc4c32)cc1

residual activity ([1]; compound 1.0 µM): 99% | residual activity ([1]; compound 10.0 µM): 94% | residual activity ([2]; compound 1.0 µM): 96% | residual activity ([2]; compound 10.0 µM): 82% | residual activity ([3]; compound 1.0 µM): 87% | residual activity ([3]; compound 10.0 µM): 91% | residual activity ([4]; compound 1.0 µM): 110% | residual activity ([5]; compound 1.0 µM): 87% | residual activity ([5]; compound 10.0 µM): 96% | residual activity ([7]; compound 1.0 µM): 94% | residual activity ([7]; compound 10.0 µM): 82% | residual activity ([9]; compound 1.0 µM): 110% | residual activity ([9]; compound 10.0 µM): 118% | residual activity ([11]; compound 1.0 µM): 106% | residual activity ([11]; compound 10.0 µM): 105% | residual activity ([20]; compound 1.0 µM): 106% | residual activity ([20]; compound 10.0 µM): 112% | residual activity ([14]; compound 1.0 µM): 105% | residual activity ([15]; compound 1.0 µM): 124% | residual activity ([15]; compound 10.0 µM): 107% | residual activity ([16]; compound 1.0 µM): 101% | residual activity ([16]; compound 10.0 µM): 92% | residual activity ([17]; compound 1.0 µM): 82% | residual activity ([17]; compound 10.0 µM): 90% | residual activity ([18]; compound 1.0 µM): 113% | residual activity ([18]; compound 10.0 µM): 115% | residual activity ([19]; compound 10.0 µM): 115%
Compound: Cc1ccc(=O)n(-c2ccccc2)c1

residual activity ([1]; compound 0.1 µM): 106% | residual activity ([1]; compound 1.0 µM): 103% | residual activity ([1]; compound 10.0 µM): 115% | residual activity ([2]; compound 0.1 µM): 101% | residual activity ([2]; compound 1.0 µM): 117% | residual activity ([2]; compound 10.0 µM): 111% | residual activity ([3]; compound 0.1 µM): 84% | residual activity ([3]; compound 1.0 µM): 56% | residual activity ([3]; compound 10.0 µM): 12% | residual activity ([4]; compound 0.1 µM): 108% | residual activity ([4]; compound 1.0 µM): 114% | residual activity ([4]; compound 10.0 µM): 109% | residual activity ([5]; compound 0.1 µM): 100% | residual activity ([5]; compound 1.0 µM): 93% | residual activity ([5]; compound 10.0 µM): 84% | residual activity ([7]; compound 0.1 µM): 99% | residual activity ([7]; compound 1.0 µM): 102% | residual activity ([7]; compound 10.0 µM): 93% | residual activity ([9]; compound 0.1 µM): 101% | residual activity ([9]; compound 1.0 µM): 111% | residual activity ([9]; compound 10.0 µM): 84% | residual activity ([11]; compound 0.1 µM): 108% | residual activity ([11]; compound 1.0 µM): 101% | residual activity ([11]; compound 10.0 µM): 97% | residual activity ([20]; compound 0.1 µM): 102% | residual activity ([20]; compound 1.0 µM): 112% | residual activity ([20]; compound 10.0 µM): 100% | residual activity ([14]; compound 0.1 µM): 92% | residual activity ([14]; compound 10.0 µM): 87% | residual activity ([15]; compound 0.1 µM): 93% | residual activity ([15]; compound 10.0 µM): 93% | residual activity ([16]; compound 0.1 µM): 114% | residual activity ([16]; compound 1.0 µM): 124% | residual activity ([16]; compound 10.0 µM): 103% | residual activity ([17]; compound 0.1 µM): 103% | residual activity ([17]; compound 10.0 µM): 66% | residual activity ([18]; compound 0.1 µM): 91% | residual activity ([18]; compound 1.0 µM): 107% | residual activity ([18]; compound 10.0 µM): 90% | residual activity ([19]; compound 0.1 µM): 98% | residual activity ([19]; compound 1.0 µM): 104% | residual activity ([19]; compound 10.0 µM): 73%
Compound: NC(=O)c1cc(-c2ccnc(NC3CCCCC3)c2)nc(N2CCNCC2)c1

Reference: the kinase profiling compilation of Christmann-Franck et al. (2016)
